We go through nine compounds from patent US9463338B2, “Derivatives of the sinapinic acid” (PHARMASYNTHESE, priority 2013, dated 2016).

The subject of series [1] is explants of adipose tissues. In words: Slimming effect: glycerol released in culture medium of adipose tissue explants. The class given is cell-based, human. As for the experimental part:
The activity of the compounds of the invention on the adipocytes has been assessed. To do so, tests have been carried out on explants of adipose tissues that are kept alive according to the following experimental protocol. The products to be tested are introduced in the culture medium. After 9 days of treatment, the activity is assessed through an assay of the glycerol released in the culture medium. In order to be able to compare the potential activity of the molecules, caffeine (Sigma ref C-0750 batch 127F0396), which is known for its activity on the adipocytes (Studlar M. […] The explants are prepared from a tummy tuck ([…]-AB-40) carried out on a donor. 54 explants of tissues have been prepared and kept alive in a medium which is supplemented with penicillin/streptomycin antibiotics (Gibco ref 15140 batch 918578) at 37° C. and with 5% of CO2. The treatment has been carried out, on 3 explants, by incorporating 100 μl of the product (which is in turn at a 2% concentration in the adequate solvent, DMSO) in 2 ml of the culture medium on days J0, J2, J3, J5 and J7. Caffeine has been diluted to the desired concentration in the culture medium on these same days. The control explants have undergone no treatment. On J0, the 3 explants have been collected and frozen at -80° C. On J9, the remaining explants have been collected and preserved under the same conditions. The extraction of lipids from the culture medium has been carried out according to a tested procedure. The assay of the glycerol of the culture medium has been carried out using a glycerol assay kit (Megazyme, K-GROL) in the form of 96-well microplates and reading has been made at 340 nm with a Tecam Infinite M200 microplate reader associated to the Magellan software.

In series [2] the test system is normal human dermal fibroblasts. In words: Production of type I pro-collagen in monolayer cultures of normal human dermal fibroblasts (E.I.A.). In kind it is cell-based. The settings on record: 48 hours; for Procollagen Difference (%): vs DMSO. Here is the method:
(§1) The test system consists of monolayers of adult normal human dermal fibroblasts obtained by cultivating cells collected from a tummy tuck carried out on a person.
The used reference activator is the Transforming Growth Factor β (TGF-β) at 1 ng/ml. […]
(§2) The compound to be tested is solubilized in 1 mg/ml in DMSO, then diluted in the cells incubation medium, with a constant concentration of 0.1% (v/v) in DMSO.
Upon completion of the incubation period, the type I pro-collagen contained in the fibroblasts incubation media has been quantified using a sensitive and specific E.I.A. kit.
Upon completion of the incubation period, the proteins contained in the cellular lysates have been quantified by a spectrophotometric method (Bradford method—Bradford M. (1976) Anal. Biochem., 72, 248-254).
(§3) The statistical significance of the differences that have been observed between the <<Control>> and the <<reference product>> conditions, has been assessed through a Student test. The statistical significance of the differences that have been observed between the <<Check>> and the <<test products>> conditions, has been assessed through a one-way analysis of variance (One Way ANOVA) followed by a Holm-Sidak test (*:p<0.05).
The results are given in the form of μg of type I pro-collagen per mg of protein (average+/− the standard deviation, S.D.) and are reported in the following Table 5.

For the next series, the system named is normal human melanocytes. In words: Melanin production of normal human melanocytes (conditioned fibroblast media). In kind it is cell-based. The settings on record: for Melanin/Proteins, individual values: conditioned medium 1/10th on melanocytes 72 hours; for Melanin/Proteins % DMSO / Melanin/Proteins Average: conditioned fibroblast medium, melanocytes 72 hours; for Melanin/Proteins Difference (%): vs DMSO 0.01%. The text has this:
These experiments allowed to show the capability of the compounds of the invention to modulate the melanin production of normal human melanocytes cultivated in D.K.K. fibroblast monolayers.
Monolayers of normal human dermal fibroblasts have been obtained by cultivating cells collected from a tummy tuck carried out on a person. For carrying out the tests, these cells have been cultivated until obtaining confluent monolayers. Monolayers of normal human melanocytes have been obtained by cultivating cells collected from a tummy tuck carried out on a person. For carrying out the tests, these cells have been cultivated until obtaining non-confluent monolayers. […]
Afterwards, the melanocytes have been incubated for 72 hours at 37° C. in a humid atmosphere with 5% of CO2, in the absence (culture medium alone) or in the presence of kojic acid at 250 μM or of conditioned fibroblast media (see above) diluted to 1/10th in the culture medium of the melanocytes.
The active ingredient has been solubilized in DMSO (Dimethyl Sulfoxide). Afterwards, the dilutions have been carried out in the cells incubation medium with a constant concentration of 0.01% (v/v) of DMSO.
Upon completion of the incubation period, the intracellular melanin content has been quantified in the melanocytic lysates by a spectrophotometric measurement at 405 nm.
Upon completion of the incubation period, the proteins contained in the cellular lysates have been quantified by a spectrophotometric method (Bradford method).
The results are given in the form of μg of intracellular melanin per mg of total proteins of the cellular layer (averages+/− the standard deviation, S.D.).
The statistical significance of the differences observed between the <<Control>> and the <<test product>> conditions, has been assessed through a one-way analysis of variance (One Way ANOVA) followed by a Holm-Sidak test (*:p<0.05).

For series [3], the system named is normal human dermal fibroblasts. The series is described as follows: Production of progerin in monolayer cultures of normal human dermal fibroblasts (ELISA). The class given is cell-based. The settings on record: for Progerin % DMSO / Progerin Average / Progerin, individual values / Progerin Difference (%): 96 hours; for Progerin Difference (%): vs DMSO.
Source text: In order to study the influence of the compounds of the invention on the concentration of progerin in the cells, the assay method described by C. Verdy, J.-E. Branka and N. Mekideche in <<Quantitative assessment of lactate and progerine production in normal human cutaneous cells during normal ageing: effect of an alaria esculenta extract>>, Int. J. Cosmetic Science, 2011, 1-5, has been used.
as §1
Insulin at 10 nM has been used as a reference product in this study. […]
as §2
Upon completion of the incubation period, on the one hand, the progerin has been quantified in the cellular lysates (obtained by ultrasonic action) through a sensitive and specific ELISA assay, and on the other hand, the proteins that are contained in the cellular lysates have been quantified by a spectrophotometric method (Bradford method—Bradford M. (1976) Anal. Biochem., 72, 248-254).
as §3
A general note: ELISA stands for enzyme-linked immunosorbent assay.

The nature of series [4]: ORAC (Oxygen Radical Absorbance Capacity) antioxidant activity. The class given is biochemical. The settings on record: for antioxidant activity in comparison with trolox: ORAC. The text has this:
The ORAC (Oxygen Radical Absorbance Capacity) method, described in Cao, G., Alessio, H. M., Cutler, R. G. Free radical Biology & Medecine 1993, 14: 303-311<<Oxygen-Radical Absorbance Capacity assay for antioxydants>> and Benderitter, M., Vincent-Genid, L., Pouget, J. P., Voisin, P. Radiation Research 2003; 159 (4): 471-483 <<The cell membrane as a biosensor of oxydative stress induced by radiation exposure:multiparameter investigation>>, has been used for measuring the anti-oxidant capability of the compounds of the invention.
By convention, the ORAC antioxidant activity of any molecule is measured in comparison with a recognized reference which is an analog of vitamin E, the trolox (6-hydroxy-2,5,7,8-tetramethylchroman-2-carboxylic acid), the anti-oxidant capability of 1 μM (micro mole) of trolox corresponding to 1 ORAC unit.
The ORAC values are commonly reported in μmol TE/g (in micromole of Trolox Equivalent per gram of product to be tested).
Given these definitions, the trolox has an ORAC index of about 3995 units.
The ORAC values of the compounds 26 and 34 have been measured (average of 3 measurements).

SMILES strings stand for the structures. Several values for one entry are separate records, joined by “and”; a condition that tells them apart may be missing. Identical values can stand only once. Marks after values point to notes of the source that are not given here.

What is called melting point is the temperature of the solid-liquid transition. In the case of `COc1cc(/C=C/C(=O)OCCc2ccc(OC(C)=O)cc2)cc(OC)c1OC(C)=O` [Compound 1, 4-acetoxy-3,5-dimethoxy cinnamate of 2-(4-acetoxyphenyl)-ethyl], the melting point came out at 132 °C.
Turning to `CCCCCCCCCCCCCCCCOC(=O)/C=C/c1cc(OC)c(OC(C)=O)c(OC)c1` [Compound 4, 4-acetoxy-3,5-dimethoxy cinnamate of n-hexadecyl], the melting point was 82 °C.
As to `COc1cc(COC(=O)/C=C/c2cc(OC)c(OC(C)=O)c(OC)c2)cc(OC)c1OC` [Compound 5], in series [1] (after 9 days of treatment), the “Glycerol % in comparison with caffeine” value came out at 82% and the “slimming activity in comparison with caffeine” value is reported as “enhanced slimming activity”. For the same compound, the “Glycerol Average” value in series [1] (glycerol released in culture medium after 9 days, 100 μl of 2% product in DMSO in 2 ml medium on J0, J2, J3, J5, J7, 3 explants) came to 0.083 mg/mL. Moreover, in series [2] (10 ng/ml), the “Procollagen % DMSO” value came to 75.7%; the “Procollagen Average” value is listed as 39.7* pg/mg of protein; the “Procollagen, individual values” was 45.3 pg/mg of protein and 37.0 pg/mg of protein and 36.8 pg/mg of protein; the “Procollagen Difference (%)” value is recorded as −24.3%. For the same compound, in series [2] (100 ng/ml), the “Procollagen % DMSO” value is 96.3%; the “Procollagen Average” value was 50.5 pg/mg of protein; the “Procollagen, individual values” is 53.0 pg/mg of protein and 52.3 pg/mg of protein and 46.3 pg/mg of protein; the “Procollagen Difference (%)” value was −3.7%. In series [2] (500 ng/ml), the “Procollagen % DMSO” value was 126.9%; the “Procollagen Average” value was 66.6* pg/mg of protein; the “Procollagen, individual values” is 66.1 pg/mg of protein and 62.3 pg/mg of protein and 71.4 pg/mg of protein; the “Procollagen Difference (%)” value came out at 26.9%. Besides, the “synthesis of melanin in the melanocytes” value in the series with normal human melanocytes was “significantly decrease”. In the series with normal human melanocytes (10 ng/ml on fibroblasts 48 hours), the “Melanin/Proteins, individual values” is 14.2 µg/mg and 11.7 µg/mg and 13.7 µg/mg. Besides, in the series on normal human melanocytes (10 ng/ml), the “Melanin/Proteins % DMSO” value stood at 83.0%, the “Melanin/Proteins Average” value is 14.3* μg/mg and the “Melanin/Proteins Difference (%)” value is −17.0%. Moreover, the “Melanin/Proteins, individual values” with normal human melanocytes (50 ng/ml on fibroblasts 48 hours) is 14.3 μg/mg and 14.7 μg/mg (2×). In the series on normal human melanocytes (50 ng/ml), the “Melanin/Proteins % DMSO” value was determined as 83.6%, the “Melanin/Proteins Average” value is on record as 14.4* μg/mg and the “Melanin/Proteins Difference (%)” value is −16.4%. For the same compound, the “Melanin/Proteins, individual values” in the series on normal human melanocytes (100 ng/ml on fibroblasts 48 hours) was 15.8 µg/mg and 16.7 µg/mg and 16.0 µg/mg. For the same compound, in the series on normal human melanocytes (100 ng/ml), the “Melanin/Proteins % DMSO” value is on record as 93.7%, the “Melanin/Proteins Average” value stood at 16.2 µg/mg and the “Melanin/Proteins Difference (%)” value is given as −6.3%. In addition, in series [3] (10 ng/ml), the “Progerin % DMSO” value came out at 27.6%; the “Progerin Average” value is 306.4* ng/mg of protein; the “Progerin, individual values” was 284.0 ng/mg of protein and 243.7 ng/mg of protein and 391.4 ng/mg of protein; the “Progerin Difference (%)” value was −72.4%. Moreover, in series [3] (100 ng/ml), the “Progerin % DMSO” value is on record as 29.1%; the “Progerin Average” value is 322.9* ng/mg of protein; the “Progerin, individual values” was 206.0 ng/mg of protein and 364.1 ng/mg of protein and 398.6 ng/mg of protein; the “Progerin Difference (%)” value was −70.9%. Further, in series [3] (500 ng/ml), the “Progerin % DMSO” value came out at 77.9%; the “Progerin Average” value is recorded as 865.0 ng/mg of protein; the “Progerin, individual values” is 916.2 ng/mg of protein and 1021.7 ng/mg of protein and 657.0 ng/mg of protein; the “Progerin Difference (%)” value is recorded as −22.1%. Moreover, the “neo synthesis of progerin” value in series [3] (under the retained experimental conditions) was “significantly decrease”.
Take `COc1cc(/C=C/C(=O)Oc2cc(C)ccc2C(C)C)cc(OC)c1OC(C)=O` [Compound 8, 4-acetoxy-3,5-dimethoxy cinnamate of 2-isopropyl-5-methyl phenyl]: the melting point was 143 °C.
The same measure, in the same setting: the value for `COc1cc(/C=C/C(=O)Nc2ccccc2)cc(OC)c1OC(C)=O` [Compound 19, 4-acetoxy-3,5-dimethoxy-N-(phenyl)-cinnamamide] was 100 °C.
Consider `COc1cc(/C=C/C(=O)NCCCc2ccccc2)cc(OC)c1OC(C)=O` [Compound 26, 4-acetoxy-3,5-dimethoxy-N-(3-phenylpropyl)-cinnamamide], for which the melting point was 132 °C. Also, in series [4], the “antioxidant activity in comparison with trolox” value is “slightly higher”.
With `COc1cc(/C=C/C(=O)NC2CC2)cc(OC)c1OC(C)=O` [Compound 34], the “antioxidant activity in comparison with trolox” value in series [4] was 5 times.
As to `COc1cc(/C=C/C(=O)NCC(O)c2ccc(O)cc2)cc(OC)c1OC(C)=O` (stereo not drawn) [Compound 39], in series [4] (average of 3 measurements), the “ORAC Antioxidant activity” value came out at 20968 ± 992 μmol TE/g.
As for `Cc1c(C)c2c(c(C)c1O)CCC(C)(C(=O)O)O2` (stereo not drawn) [Trolox, 6-hydroxy-2,5,7,8-tetramethylchroman-2-carboxylic acid, reference compound], the ORAC index entry in series [4] (reference, given the definitions) is “about 3995 units”. Also, the “ORAC Antioxidant activity” value in series [4] (reference, value follows from the definition of the ORAC unit) is 3995 μmol TE/g.
